Literature values as cited in patent publication US20030088889A1, “Enhancing biological activity of plants” (priority 2002, published 2003).

Assays:
[1] = biological target: T1, estrogen receptor (Homo sapiens, UniProt P03372)
T1 sequence (P03372 1-595): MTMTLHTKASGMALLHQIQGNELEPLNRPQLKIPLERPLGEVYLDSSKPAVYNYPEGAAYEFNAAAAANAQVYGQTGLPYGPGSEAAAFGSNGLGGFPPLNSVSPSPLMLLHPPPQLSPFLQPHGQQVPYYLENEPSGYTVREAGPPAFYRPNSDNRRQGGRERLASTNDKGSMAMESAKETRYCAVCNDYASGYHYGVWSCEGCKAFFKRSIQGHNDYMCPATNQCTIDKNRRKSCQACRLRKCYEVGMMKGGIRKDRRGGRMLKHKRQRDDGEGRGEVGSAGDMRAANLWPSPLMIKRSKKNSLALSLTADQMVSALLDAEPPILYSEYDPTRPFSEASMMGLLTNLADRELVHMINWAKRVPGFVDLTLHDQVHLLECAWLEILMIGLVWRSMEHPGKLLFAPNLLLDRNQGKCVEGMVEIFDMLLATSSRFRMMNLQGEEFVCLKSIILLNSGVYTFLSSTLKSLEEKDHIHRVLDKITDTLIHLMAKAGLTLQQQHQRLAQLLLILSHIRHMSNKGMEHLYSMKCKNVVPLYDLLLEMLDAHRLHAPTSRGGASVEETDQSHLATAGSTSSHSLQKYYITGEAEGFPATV

[2] = test system: neuronal reuptake of monoamines and amino acids

Row | Molecule | affinity to the estrogen receptor [1] | inhibition of neuronal reuptake of monoamines and amino acids [2]
1 | O=c1cc(-c2ccc(O)c(-c3c(O)cc(O)c4c(=O)cc(-c5ccc(O)cc5)oc34)c2)oc2cc(O)cc(O)c12 [biapigenin] | weak affinity | 
2 | hyperforin |  | potently inhibit
